Reference: PubChem BioAssay AID1259407 (Chemical Carcinogenesis Research Information System (CCRIS), 2018)
Active and inactive are the calls of the source. The rule behind the calls is not given here.

Tested on: CCRIS mutagenicity, Ames/micronucleus/aberration tests
Experiment: CCRIS mutagenicity studies
[1] = Test System: AMES SALMONELLA TYPHIMURIUM, Strain/Indicator: TA98, Metabolic Activation: NONE, Method: STANDARD PLATE
[2] = Test System: AMES SALMONELLA TYPHIMURIUM, Strain/Indicator: TA100, Metabolic Activation: NONE, Method: STANDARD PLATE
[3] = Test System: AMES SALMONELLA TYPHIMURIUM, Strain/Indicator: TA100, Metabolic Activation: RAT, LIVER, S-9, PHENOBARBITAL, Method: STANDARD PLATE
[4] = Test System: AMES SALMONELLA TYPHIMURIUM, Strain/Indicator: TA98, Metabolic Activation: NONE, Method: PREINCUBATION
[5] = Test System: AMES SALMONELLA TYPHIMURIUM, Strain/Indicator: TA100, Metabolic Activation: NONE, Method: PREINCUBATION

In the case of `O=C(O)c1cn(C2CC2)c2cc(N3CCNCC3)c(F)cc2c1=O`, the mutagenic call (End Point: In vitro micronucleus, Test System: WTK-1 human lymphoma cells, Metabolic Activation: None) is reported as “inactive; negative”, the mutagenic call (Test System: AMES SALMONELLA TYPHIMURIUM, Strain/Indicator: HISC3076, Metabolic Activation: NONE, Method: STANDARD PLATE) is reported as “inactive; negative” and the mutagenic call (Test System: AMES SALMONELLA TYPHIMURIUM, Strain/Indicator: HISD3052, Metabolic Activation: NONE, Method: STANDARD PLATE) is reported as “active; positive”. For the same compound, the mutagenic call (Test System: AMES SALMONELLA TYPHIMURIUM, Strain/Indicator: HISG428, Metabolic Activation: NONE, Method: STANDARD PLATE) was “inactive; negative”, the mutagenic call (Test System: AMES SALMONELLA TYPHIMURIUM, Strain/Indicator: TA92, Metabolic Activation: NONE, Method: STANDARD PLATE) was “active; positive” and the mutagenic call (Test System: AMES SALMONELLA TYPHIMURIUM, Strain/Indicator: TA94, Metabolic Activation: NONE, Method: STANDARD PLATE) was “active; positive”. The mutagenic call (Test System: AMES SALMONELLA TYPHIMURIUM, Strain/Indicator: TA102, Metabolic Activation: NONE, Method: STANDARD PLATE) was “active; positive”, the mutagenic call (Test System: AMES SALMONELLA TYPHIMURIUM, Strain/Indicator: TA103, Metabolic Activation: NONE, Method: STANDARD PLATE) was “active; positive” and the mutagenic call (Test System: AMES SALMONELLA TYPHIMURIUM, Strain/Indicator: TA104, Metabolic Activation: NONE, Method: STANDARD PLATE) was “inactive; negative”. For the same compound, the mutagenic call (Test System: AMES SALMONELLA TYPHIMURIUM, Strain/Indicator: TA2425, Metabolic Activation: NONE, Method: STANDARD PLATE) was “active; positive”, the mutagenic call (Test System: AMES SALMONELLA TYPHIMURIUM, Strain/Indicator: TA2638, Metabolic Activation: NONE, Method: STANDARD PLATE) was “active; positive” and the mutagenic call (Test System: AMES SALMONELLA TYPHIMURIUM, Strain/Indicator: TA2661, Metabolic Activation: NONE, Method: STANDARD PLATE) was “inactive; negative”. For the same compound, the mutagenic call (Test System: AMES SALMONELLA TYPHIMURIUM, Strain/Indicator: TA2662, Metabolic Activation: NONE, Method: STANDARD PLATE) was “active; positive”, the mutagenic call (Test System: AMES SALMONELLA TYPHIMURIUM, Strain/Indicator: TA2678, Metabolic Activation: NONE, Method: STANDARD PLATE) was “inactive; negative” and the mutagenic call (Test System: CHINESE HAMSTER V-79, Strain/Indicator: V-79 (HPRT)/6-THIOGUANINE, Metabolic Activation: NONE) was “active; positive”. The mutagenic call (Test System: MOUSE LYMPHOMA, Strain/Indicator: L5178Y (TK+/TK-), Metabolic Activation: NONE, Method: FLUCTUATION TEST) was “active; positive”.
With `N=C(N)c1ccc(-c2cc3ccc(C(=N)N)cc3[nH]2)cc1` the mutagenic call [1] was “inactive; negative”, the mutagenic call (Test System: AMES SALMONELLA TYPHIMURIUM, Strain/Indicator: TA98, Metabolic Activation: RAT, LIVER, S-9, PHENOBARBITAL, Method: STANDARD PLATE) was “inactive; negative” and the mutagenic call [2] was “inactive; negative”. For the same compound, the mutagenic call [3] was “inactive; negative” and the mutagenic call (Test System: E. COLI, Strain/Indicator: WP2, Metabolic Activation: NONE, Method: PREINCUBATION) was “inactive; negative”.
In the case of `Nc1ccc2c3c(cccc13)C(=O)c1ccccc1-2`, the mutagenic call (End Point: In vivo micronucleus, Test System: lacZ mutant frequency in liver, lung, and bone marrow cells, Species: Mouse, Strain/Sex: Big Blue (BALB/c x DBA2)/Male, Route: Oral) is reported as “active; positive in liver and bone marrow”.
In the case of `Nc1cc([N+](=O)[O-])cc([N+](=O)[O-])c1`, the mutagenic call [4] is reported as “active; positive”, the mutagenic call [1] is reported as “active; positive” and the mutagenic call (Test System: AMES SALMONELLA TYPHIMURIUM, Strain/Indicator: TA98, Metabolic Activation: RAT, LIVER, S-9, AROCLOR 1254, Method: STANDARD PLATE) is reported as “active; positive”. The mutagenic call (Test System: AMES SALMONELLA TYPHIMURIUM, Strain/Indicator: TA98, Metabolic Activation: RAT, LIVER, S-9, KANECHLOR 500, Method: PREINCUBATION) was “active; positive”, the mutagenic call [5] was “active; positive” and the mutagenic call [2] was “active; positive”. For the same compound, the mutagenic call (Test System: AMES SALMONELLA TYPHIMURIUM, Strain/Indicator: TA100, Metabolic Activation: RAT, LIVER, S-9, AROCLOR 1254, Method: STANDARD PLATE) was “active; positive” and the mutagenic call (Test System: AMES SALMONELLA TYPHIMURIUM, Strain/Indicator: TA100, Metabolic Activation: RAT, LIVER, S-9, KANECHLOR 500, Method: PREINCUBATION) was “active; positive”.
With `CCCN=NC(C)(C)OO` the mutagenic call (Test System: AMES SALMONELLA TYPHIMURIUM, Strain/Indicator: TA1535, Metabolic Activation: NONE) was “active; positive” and the mutagenic call (Test System: E. COLI, Strain/Indicator: WP2 (HCR-), Metabolic Activation: NONE) was “active; positive”.
For `O=[N+]([O-])c1ccc(OC[C@H]2CO2)cc1`, the mutagenic call [2] was “active; positive”.
In the case of `NC(=O)/C=C/c1ccc([N+](=O)[O-])o1`, the mutagenic call [4] is reported as “active; positive” and the mutagenic call (Test System: UDS HUMAN FIBROBLASTS, Strain/Indicator: THY INCORP (NON-S-PHASE), Metabolic Activation: NONE, Method: AUTORADIOGRAPHY) is reported as “active; positive”.
`OC(CCl)CCl` was tested, and the mutagenic call (Test System: AMES SALMONELLA TYPHIMURIUM, Strain/Indicator: TA97, Metabolic Activation: HAMSTER, LIVER, S-9, AROCLOR 1254 (10%), Method: PREINCUBATION) was “active; positive”, the mutagenic call (Test System: AMES SALMONELLA TYPHIMURIUM, Strain/Indicator: TA97, Metabolic Activation: NONE, Method: PREINCUBATION) was “inactive; negative” and the mutagenic call (Test System: AMES SALMONELLA TYPHIMURIUM, Strain/Indicator: TA97, Metabolic Activation: RAT, LIVER, S-9, AROCLOR 1254 (10%), Method: PREINCUBATION) was “inactive; negative”. The mutagenic call (Test System: AMES SALMONELLA TYPHIMURIUM, Strain/Indicator: TA98, Metabolic Activation: HAMSTER, LIVER, S-9, AROCLOR 1254 (10%), Method: PREINCUBATION) was “active; positive”, the mutagenic call [4] was “inactive; negative” and the mutagenic call (Test System: AMES SALMONELLA TYPHIMURIUM, Strain/Indicator: TA98, Metabolic Activation: RAT, LIVER, S-9, AROCLOR 1254 (10%), Method: PREINCUBATION) was “inactive; negative”. The mutagenic call (Test System: AMES SALMONELLA TYPHIMURIUM, Strain/Indicator: TA100, Metabolic Activation: ADH AND NAD+ (5 OR 50 µL), Method: PREINCUBATION) was “active; positive”, the mutagenic call (Test System: AMES SALMONELLA TYPHIMURIUM, Strain/Indicator: TA100, Metabolic Activation: HAMSTER, LIVER, S-9, AROCLOR 1254 (10%), Method: PREINCUBATION) was “active; positive” and the mutagenic call (Test System: AMES SALMONELLA TYPHIMURIUM, Strain/Indicator: TA100, Metabolic Activation: MOUSE, LIVER, S-9, PHENOBARBITAL, Method: STANDARD PLATE) was “active; positive”. For the same compound, the mutagenic call [5] was “active; positive”, the mutagenic call [2] was “active; positive” and the mutagenic call (Test System: AMES SALMONELLA TYPHIMURIUM, Strain/Indicator: TA100, Metabolic Activation: RAT, LIVER, S-9, AROCLOR 1254 (10%), Method: PREINCUBATION) was “active; positive”. The mutagenic call (Test System: AMES SALMONELLA TYPHIMURIUM, Strain/Indicator: TA100, Metabolic Activation: RAT, LIVER, S-9, AROCLOR 1254 (NAD+), Method: PREINCUBATION) was “active; positive”, the mutagenic call (Test System: AMES SALMONELLA TYPHIMURIUM, Strain/Indicator: TA100, Metabolic Activation: RAT, LIVER, S-9, AROCLOR 1254 (NADP+), Method: PREINCUBATION) was “active; positive” and the mutagenic call (Test System: AMES SALMONELLA TYPHIMURIUM, Strain/Indicator: TA100, Metabolic Activation: RAT, LIVER, S-9, PCB, Method: STANDARD PLATE) was “active; positive”. The mutagenic call [3] was “active; positive”, the mutagenic call (Test System: AMES SALMONELLA TYPHIMURIUM, Strain/Indicator: TA1535, Metabolic Activation: ADH AND NAD+ (50 µL), Method: PREINCUBATION) was “active; positive” and the mutagenic call (Test System: AMES SALMONELLA TYPHIMURIUM, Strain/Indicator: TA1535, Metabolic Activation: HAMSTER, LIVER, S-9, AROCLOR 1254 (10%), Method: PREINCUBATION) was “active; positive”. The mutagenic call (Test System: AMES SALMONELLA TYPHIMURIUM, Strain/Indicator: TA1535, Metabolic Activation: NONE, Method: PREINCUBATION) was “active; positive”, the mutagenic call (Test System: AMES SALMONELLA TYPHIMURIUM, Strain/Indicator: TA1535, Metabolic Activation: NONE, Method: STANDARD PLATE) was “active; positive” and the mutagenic call (Test System: AMES SALMONELLA TYPHIMURIUM, Strain/Indicator: TA1535, Metabolic Activation: RAT, LIVER, S-9, AROCLOR 1254 (10%), Method: PREINCUBATION) was “active; positive”. For the same compound, the mutagenic call (Test System: AMES SALMONELLA TYPHIMURIUM, Strain/Indicator: TA1535, Metabolic Activation: RAT, LIVER, S-9, AROCLOR 1254 (ADH AND NAD+), Method: PREINCUBATION) was “active; positive”, the mutagenic call (Test System: AMES SALMONELLA TYPHIMURIUM, Strain/Indicator: TA1535, Metabolic Activation: RAT, LIVER, S-9, AROCLOR 1254 (NADP+), Method: PREINCUBATION) was “active; positive” and the mutagenic call (Test System: AMES SALMONELLA TYPHIMURIUM, Strain/Indicator: TA1535, Metabolic Activation: RAT, LIVER, S-9, PCB, AROCLOR 1254, Method: STANDARD PLATE) was “active; positive”.
